Experimental data as given in patent publication US12128129B2, “Lactobacillus plantarum for skin care” (SYMRISE AG, priority 2019, dated 2024).

Tests used:
HaCaT keratinocytes = assay: IL-8 release after S. aureus stimulation of pre-treated keratinocytes (ELISA); assay type: cell-based, human; conditions: 0.25 mg/mL, 48 h pre-treatment
Description: Anti-Inflammatory Effects of Lactobacillus plantarum HEAL 19 and HEAL 99 HaCaT keratinocytes were cultivated in 96-well plates using RPMI-A, medium sterile filtered with L-Glutamine, Capricorn, supplemented with 10% fetal calf serum (FCS), Capricorn. The plates were incubated at 37° C. and 5% CO2. After 24 hours starvation with cell culture medium (RPMI, 1% FCS) the cells were washed once. The anti-inflammatory substances/inactivated bacteria suspensions were suspended in starvation medium, applied and incubated for 24/48 h with parameters described above. Dexamethasone in a concentration of 10 μM was used as positive control. To remove bacterial cells after pre-incubation all wells were washed with cell culture medium three times. IL-1alpha, Gibco, life technologies was dissolved in H2Odest, diluted in starvation medium and pipetted to wells, preferably at a concentration of 30 ng/mL. Alternatively, a heat inactivated Staphylococcus aureus (DSM799) suspension was used as pro-inflammatory agent in a concentration of 0.1 mg/mL-1 mg/mL dry mass. After 8 h incubation the supernatants were separated. All samples were stored at −80° C. until further analyses. IL-8 concentrations were measured with Human CXCL8/IL-8, DuoSet ELISA, Development Systems, R&D Systems. The experimental procedure was performed as described in the provided protocol. […]

[1] = test system: S. aureus (DSM799/ATCC6538); assay: Inhibition of Staphylococcus aureus growth (growth curves, OD 620 nm); assay type: cell-based; conditions: 0.1 and/or 0.05%, 16 h incubation
Description: Antimicrobial Effects of the Lactobacillus Strains Growth curves of various bacteria were measured photometrically at 620 nm. Inhibition of Staphylococcus aureus: 96-well MTP were prepared according to DIN58940-8 with autoclaved CASO medium (MERCK 1.05459) and test substances dissolved in DMSO or distilled water. The relevant wells were inoculated with S. aureus (DSM799/ATCC6538) using stock cultures maintained in 10% glycerin at −20° C. An inoculum of 1-6×10^6 cfu was added per well. Test substances were analyzed using three or four replicate wells during incubation at 37° C. for 16 hours. Growth curves were determined in each well via absorption at 620 nm using a Sunrise Photometer (Tecan, Austria) and Magellan Software. A concentration of 125 ppm farnesol and 4 ppm triclosan was used as positive control for growth inhibition, both pre-dissolved in DMSO (Merck 802912). For calculation, averages of detected absorptions were calculated and normalized with blank values. These OD values were plotted in function of time for graphical presentation.

[2] = test system: ex vivo human skin models; assay: Epidermal filaggrin, involucrin and cytokeratin 14 immunostaining ex vivo; assay type: cell-based; conditions: various concentrations, vs vehicle (DMSO)
Description: Ex Vivo Studies Ex vivo trials were done by Cutech Srl, Italy. Effects of described Lactobacillus strains on various parameters were analyzed in ex vivo skin models. Human skin from abdominal plastic surgery was used. Applications of heat inactivated bacteria suspensions were done systemically or topically, in formulation or solved in cell culture medium Tape stripping may be used. Concentrations and incubation times may vary. All data were processed in terms of mean, standard deviation and standard error of mean (SEM) for each treatment. Epidermal Filaggrin, Involucrin and Cytokeratin 14 For analyses, the models were immune-stained with the selected antibody filaggrin rabbit polyclonal [H-300], involucrin mouse monoclonal (SY5) and/or cytokeratin 14 (CK14) rabbit monoclonal (EPR17350). The amount of the antigen present in each slide was evaluated by estimating the intensity and the distribution of red dye within the epidermis. The obtained data were normalized for the length of the basal lamina.

ex vivo skin models = assay: Skin barrier integrity (Rhodamine B) ex vivo after diesel particulate 1650b; assay type: cell-based, human; conditions: L. plantarum HEAL 19 formulation vs placebo, stimulation with diesel particulate (1650b)
Description: Ex vivo trials were done by Cutech Srl, Italy. Effects of described Lactobacillus strains on various parameters were analyzed in ex vivo skin models. Human skin from abdominal plastic surgery was used. Applications of heat inactivated bacteria suspensions were done systemically or topically, in formulation or solved in cell culture medium Tape stripping may be used. Concentrations and incubation times may vary. Skin Barrier Integrity (Rhodamine B) Ex vivo skin models have been treated topically with the L. plantarum strains before the application of the diesel particulate (i.e. 1650b). All skin samples have been incubated at 35° C., 5% CO2 and environmental humidity. At the end of the experimental phase the skin samples have been harvested stained with Rhodaminde B, cryo-fixed and cut at the cryostat for consequent image acquisition and analysis. The analysis of Rhodamine B fluorescence has been performed within two sections of the epidermis area for each skin model. Images have been analyzed by evaluating the fluorescence through Image-J application (NIH, USA).

[3] = test system: HEPKp 3 dimensional skin models; assay: Filaggrin release from HEPKp 3D skin models (ELISA); assay type: cell-based, human; conditions: 0.05%, after 8 days, vs medium control
From the text: Induction of Moisturizing Factor Filaggrin in 3D Skin Models Three dimensional skin models derived from human epidermal keratinocyte progenitors (HEPKp) and were systemically treated with test substances in CnT-PR-3D medium for 4 to 9 days. The filaggrin release was detected in the media by ELISA, Enzyme-linked Immunosorbent Assay Kit for filaggrin, Cloud-Clone Corp.

Substance: Lactobacillus plantarum HEAL 19 (DSM 15313) [L. plantarum HEAL 19]
- IL-8 concentration in the medium reduced to, compared to only S. aureus stimulated control (HaCaT keratinocytes): 31%
- growth of S. aureus (optical density) [1]: growth inhibition effects
- cytokeratin 14 (CK14) production ([2]; topical treatment): increased
- involucrin production ([2]; topical treatment): increased
- filaggrin release/contents ex vivo [2]: concentration dependent induction
- rhodamine B penetration (skin barrier integrity) (ex vivo skin models): reduction of rhodamine B penetration
- filaggrin (FLG) release in medium [3]: 215%
